We go through 22 compounds from US8937078B2, “Quinazolinones as prolyl hydroxylase inhibitors” (Janssen Pharmaceutica NV, priority 2009, dated 2015).

The test system of assay [1] is Hep-3B cells. The experiment in a line: Cellular assay: erythropoietin secretion in Hep-3B cells. The assay is classed as cell-based, human. Conditions: Homo sapiens, Hep3B, 100 μM compound, 24 hours, percent of EPO secretion relative to assay control compound 7-[(4-Chloro-phenyl)-(5-methyl-isoxazol-3-ylamino)-methyl]-quinolin-8-ol, read-out: Cellular % EPO Stimulation. As for the experimental part: Hep-3B cells (ATCC, Manassas, Va.) were plated in 96-well plates at 20,000 cells per well in 100 μl of DMEM containing 10% fetal bovine serum, 1% non-essential amino acids, 50 IU/mL of penicillin and 50 μg/mL of streptomycin (all cell culture reagents from Invitrogen, Carlsbad, Calif.). Twenty-four hours after plating, compounds were added and incubated for an additional 24 hours. All compounds were tested under saturating conditions with final compound concentrations at 100 μM. Fifty microliters of the supernatant was then transferred to a human Hypoxia assay kit (Meso-Scale Discovery, Gaithersburg, Md.). Erythropoietin in the supernatant was detected according to the manufacturer's instructions as follows. EPO detection plates were blocked with 3% BSA in PBS overnight and 50 μl of the supernatant was incubated at room temperature in an orbital shaker for 2 h. Twenty-five microliters of 0.5 μg/ml anti-EPO detection antibody was added for 2 hours at room temperature in an orbital shaker. After 3 washes in PBS, 150 μl of 1× read buffer is added and the plate is then read on the MSD SECTOR instrument.

Assay [2] concerns the target T1, human PHD2 (PHD2181-417) (Homo sapiens, UniProt Q9GZT9).
T1 construct: Smt (SUMO) tag (cleaved yes); made in house; host or cells: E. coli BL21 (pBAD vector)
Description: PHD enzymatic assay ([14C]-succinic acid production). The assay is classed as biochemical. The following applies: PHD2181-417, HIF-1α peptide 10 μM, average of results; read-out: Enzyme pIC50 (converted). As to the method: Protein production was achieved by expression in BL21 cells grown in Terrific Broth containing 100 μg/ml ampicillin. Cell cultures were inoculated at 37° C. and grown to an OD600 of 0.8. Cultures were induced with 0.1% arabinose and grown overnight at 20° C. with continuous shaking at 225 rpm. Cells were then harvested by centrifugation and stored at −80° C. Cell pellets were suspended in Buffer A (50 mM Tris-HCl pH 7.2, 100 mM NaCl, 100 mM L-arginine, 1 mM TCEP, 0.05% (w/v) NP-40, 50 mM imidazole) followed by the addition of lysozyme and benzonase. Cells were lysed by sonication and the lysate was cleared by centrifugation (15,000 rpm, 90 min, 4° C.). The protein was purified by nickel affinity chromatography using a HisTrap Crude FF column (GE Healthcare). Samples were eluted in Buffer A with a 50-200 mM imidazole gradient. […] The flow-through was then dialyzed into 50 mM MES pH 6.0, 1 mM TCEP, 5 mM NaCl for ion exchange chromatography on a HiTrap SP Cation Exchange column (GE Healthcare). […] Fractions were pooled for further purification by size exclusion chromatography over a Superdex 75 Size Exclusion Column (GE Healthcare). Final protein was concentrated to 4 mg/ml and dialyzed in 10 mM PIPES pH 7.0, 100 mM NaCl, 0.5 mM TCEP.
(10 μM, California Peptide Research Inc., Napa, Calif.), and [5-^14C]-2-oxoglutaric acid (50 mCi/mmol, Moravek Chemicals, Brea, Calif.) in reaction buffer (40 mM Tris-HCl, pH 7.5, 0.4 mg/ml catalase, 0.5 mM DTT, 1 mM ascorbate) for 10 minutes. The reaction was stopped by addition of 50 μl of 70 mM H3PO4 and 50 μl of 500 mM NaH2PO4, pH3.2. Detection of [^14C]-succinic acid was achieved by separating from [5-^14C]-2-oxoglutaric acid by incubating the reaction mixture with 100 μl of 0.16 M DNP prepared in 30% perchloric acid. Next, 50 μl of unlabeled 20 mM 2-oxoglutaric acid/20 mM succinic acid, serving as carrier for the radioactivity, was added to the mixture, and was allowed to proceed for 30 minutes at room temperature. The reaction was then incubated with 50 μl of 1 M 2-oxoglutaric acid for 30 additional minutes at room temperature to precipitate the excess DNP. The reaction was then centrifuged at 2800×g for 10 minutes at room temperature to separate [^14C]-succinic acid in the supernatant from the precipitated [^14C]-dinitrophenylhydrazone. Fractions of the supernatant (400 μl) were counted using a beta counter (Beckman Coulter, Fullerton, Calif.).

Each structure is given as a SMILES string.

T1 sequence (Q9GZT9 181-417): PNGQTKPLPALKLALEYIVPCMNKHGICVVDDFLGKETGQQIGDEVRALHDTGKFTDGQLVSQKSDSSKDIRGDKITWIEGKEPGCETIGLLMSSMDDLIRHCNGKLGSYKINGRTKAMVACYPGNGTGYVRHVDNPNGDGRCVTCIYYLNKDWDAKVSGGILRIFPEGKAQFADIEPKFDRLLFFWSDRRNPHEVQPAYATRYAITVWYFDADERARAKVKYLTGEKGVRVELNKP

Regarding `CC(C)(C)c1ccc(Sc2cc3c(=O)nc(-n4cc(C(=O)O)cn4)[nH]c3cc2Cl)cc1` [Example 24, 1-[6-(4-tert-Butyl-phenylsulfanyl)-7-chloro-4-oxo-1,4-dihydro-quinazolin-2-yl]-1H-pyrazole-4-carboxylic acid], the Emax at 100 µM in assay [1] turned out to be 50%. In assay [2], the IC50 is 25.1 nM.

In the case of `O=C(O)c1cnn(-c2nc(=O)c3cc(Sc4ccccc4)c(Cl)cc3[nH]2)c1` [Example 25, 1-(7-Chloro-4-oxo-6-phenylsulfanyl-1,4-dihydro-quinazolin-2-yl)-1H-pyrazole-4-carboxylic acid], the Emax at 100 µM in assay [1] stood at 68%. Moreover, the IC50 in assay [2] is 39.8 nM.

With `COc1ccc(Sc2cc3c(=O)nc(-n4cc(C(=O)O)cn4)[nH]c3cc2Cl)cc1OC` [Example 26, 1-[7-Chloro-6-(3,4-dimethoxy-phenylsulfanyl)-4-oxo-1,4-dihydro-quinazolin-2-yl]-1H-pyrazole-4-carboxylic acid], the Emax at 100 µM in assay [1] was 55%. In assay [2], the IC50 was 31.6 nM.

On to `Cc1cc2nc(-n3cc(C(=O)O)cn3)[nH]c(=O)c2cc1Oc1c(C)cccc1C` [Example 27, 1-[6-(2,6-Dimethyl-phenoxy)-7-methyl-4-oxo-3,4-dihydro-quinazolin-2-yl]-1H-pyrazole-4-carboxylic acid], for which the Emax at 100 µM in assay [1] is 10%. Also, the IC50 in assay [2] is 20 nM.

With `COc1cc(Oc2ccc3nc(-n4cc(C(=O)O)cn4)[nH]c(=O)c3c2)cc(OC)c1OC` [Example 28, 1-[4-Oxo-6-(3,4,5-trimethoxy-phenoxy)-3,4-dihydro-quinazolin-2-yl]-1H-pyrazole-4-carboxylic acid], the Emax at 100 µM in assay [1] turned out to be 9%. Besides, the IC50 in assay [2] is 20 nM.

For `O=C(O)c1cnn(-c2nc3ccc(Oc4cccc5ccccc45)cc3c(=O)[nH]2)c1` [Example 29, 1-[6-(naphthalen-1-yloxy)-4-oxo-3,4-dihydro-quinazolin-2-yl]-1H-pyrazole-4-carboxylic acid], the Emax at 100 µM in assay [1] was 124%. Besides, the IC50 in assay [2] is 25.1 nM.

For the compound `O=C(O)c1cnn(-c2nc3ccc(Oc4cccc(Cl)c4)cc3c(=O)[nH]2)c1` [Example 30, 1-[6-(3-Chloro-phenoxy)-4-oxo-3,4-dihydro-quinazolin-2-yl]-1H-pyrazole-4-carboxylic acid], the Emax at 100 µM in assay [1] amounted to 15%. Besides, the IC50 in assay [2] was 25.1 nM.

`COc1cccc(Oc2ccc3nc(-n4cc(C(=O)O)cn4)[nH]c(=O)c3c2)c1` [Example 31, 1-[6-(3-Methoxy-phenoxy)-4-oxo-3,4-dihydro-quinazolin-2-yl]-1H-pyrazole-4-carboxylic acid]: the Emax at 100 µM in assay [1] was 129%. In assay [2], the IC50 is 20 nM.

In the case of `O=C(O)c1cnn(-c2nc3ccc(Oc4ccc(F)cc4)cc3c(=O)[nH]2)c1` [Example 32, 1-[6-(4-Fluoro-phenoxy)-4-oxo-3,4-dihydro-quinazolin-2-yl]-1H-pyrazole-4-carboxylic acid], the Emax at 100 µM in assay [1] came out at 68%. Also, the IC50 in assay [2] is 25.1 nM.

`O=C(O)c1cnn(-c2nc3ccc(Oc4ccccc4F)cc3c(=O)[nH]2)c1` [Example 33, 1-[6-(2-Fluoro-phenoxy)-4-oxo-3,4-dihydro-quinazolin-2-yl]-1H-pyrazole-4-carboxylic acid]: the Emax at 100 µM in assay [1] was 56%. In addition, the IC50 in assay [2] was 31.6 nM.

`O=C(O)c1cnn(-c2nc3ccc(Oc4cccc(F)c4)cc3c(=O)[nH]2)c1` [Example 34, 1-[6-(3-Fluoro-phenoxy)-4-oxo-3,4-dihydro-quinazolin-2-yl]-1H-pyrazole-4-carboxylic acid]: the Emax at 100 µM in assay [1] was determined as 73%. For the same compound, the IC50 in assay [2] was 25.1 nM.

Consider `CC(C)(C)c1cc(Oc2ccc3nc(-n4cc(C(=O)O)cn4)[nH]c(=O)c3c2)cc(C(C)(C)C)c1` [Example 35, 1-[6-(3,5-Di-tert-butyl-phenoxy)-4-oxo-3,4-dihydro-quinazolin-2-yl]-1H-pyrazole-4-carboxylic acid], for which the Emax at 100 µM in assay [1] was 8%. Also, the IC50 in assay [2] was 31.6 nM.

Take `Cc1cccc(Oc2ccc3nc(-n4cc(C(=O)O)cn4)[nH]c(=O)c3c2)c1` [Example 36, 1-(4-Oxo-6-m-tolyloxy-3,4-dihydro-quinazolin-2-yl)-1H-pyrazole-4-carboxylic acid]: the Emax at 100 µM in assay [1] came to 22%. Moreover, the IC50 in assay [2] is 39.8 nM.

Regarding `Cc1ccccc1Oc1ccc2nc(-n3cc(C(=O)O)cn3)[nH]c(=O)c2c1` [Example 37, 1-(4-Oxo-6-o-tolyloxy-3,4-dihydro-quinazolin-2-yl)-1H-pyrazole-4-carboxylic acid], the Emax at 100 µM in assay [1] is 78%. For the same compound, the IC50 in assay [2] is 25.1 nM.

As for `O=C(O)c1cnn(-c2nc3ccc(Oc4c(Cl)cccc4Cl)cc3c(=O)[nH]2)c1` [Example 38, 1-[6-(2,6-Dichloro-phenoxy)-4-oxo-3,4-dihydro-quinazolin-2-yl]-1H-pyrazole-4-carboxylic acid], in assay [1], the Emax at 100 µM was 91%. For the same compound, the IC50 in assay [2] is 20 nM.

For the compound `O=C(O)c1cnn(-c2nc3ccc(Oc4ccc(Cl)cc4Cl)cc3c(=O)[nH]2)c1` [Example 39, 1-[6-(2,4-Dichloro-phenoxy)-4-oxo-3,4-dihydro-quinazolin-2-yl]-1H-pyrazole-4-carboxylic acid], the Emax at 100 µM in assay [1] is 77%. Besides, the IC50 in assay [2] is 25.1 nM.

In the case of `O=C(O)c1cnn(-c2nc3ccc(Oc4cc(Cl)ccc4Cl)cc3c(=O)[nH]2)c1` [Example 40, 1-[6-(2,5-Dichloro-phenoxy)-4-oxo-3,4-dihydro-quinazolin-2-yl]-1H-pyrazole-4-carboxylic acid], the Emax at 100 µM in assay [1] was 77%. In addition, the IC50 in assay [2] is 25.1 nM.

In the case of `COc1ccc(Oc2ccc3nc(-n4cc(C(=O)O)cn4)[nH]c(=O)c3c2)cc1` [Example 41, 1-[6-(4-Methoxy-phenoxy)-4-oxo-3,4-dihydro-quinazolin-2-yl]-1H-pyrazole-4-carboxylic acid], in assay [1], the Emax at 100 µM came out at 112%. In addition, the IC50 in assay [2] was 20 nM.

Regarding `Cc1cccc(C)c1Oc1ccc2nc(-n3cc(C(=O)O)cn3)[nH]c(=O)c2c1` [Example 42, 1-[6-(2,6-Dimethyl-phenoxy)-4-oxo-3,4-dihydro-quinazolin-2-yl]-1H-pyrazole-4-carboxylic acid], the Emax at 100 µM in assay [1] was found to be 117%. Moreover, the IC50 in assay [2] was 25.1 nM.

On to `O=C(O)c1cnn(-c2nc3ccc(Oc4ccc5ccccc5c4)cc3c(=O)[nH]2)c1` [Example 43, 1-[6-(Naphthalen-2-yloxy)-4-oxo-3,4-dihydro-quinazolin-2-yl]-1H-pyrazole-4-carboxylic acid], for which the Emax at 100 µM in assay [1] came out at 76%. In assay [2], the IC50 is 25.1 nM.

As for `O=C(O)c1cnn(-c2nc3ccc(Oc4cccc5c4CCCC5)cc3c(=O)[nH]2)c1` [Example 44, 1-[4-Oxo-6-(5,6,7,8-tetrahydro-naphthalen-1-yloxy)-3,4-dihydro-quinazolin-2-yl]-1H-pyrazole-4-carboxylic acid], the Emax at 100 µM in assay [1] worked out at 52%. Besides, the IC50 in assay [2] was 25.1 nM.

On to `O=C(O)c1cnn(-c2nc3ccc(Oc4ccc(Cl)cc4)cc3c(=O)[nH]2)c1` [Example 46, 1-[6-(4-Chloro-phenoxy)-4-oxo-3,4-dihydro-quinazolin-2-yl]-1H-pyrazole-4-carboxylic acid], for which the Emax at 100 µM in assay [1] is 126%. In addition, the IC50 in assay [2] is 31.6 nM.
